Data reported in US4634709A, “Platelet aggregation inhibitory agents and intermediates therefor” (Research Corporation, priority 1984, dated 1987).
Counter-ions that a name gives are not always drawn. Like-named read-outs stand apart in the source and are kept apart here.

How the values were obtained:
[1] = system: human blood platelet aggregation, ADP-induced; test: Inhibition of ADP-induced human blood platelet aggregation (aggregometry, platelet-rich plasma); assay type: cell-based; conditions: for inhibition at 50 µM: 50 μM evaluant, % reduction in maximal aggregation intensity vs control; for inhibition at 100 µM: read-out: % inhibition of aggregation, ADP-induced; for inhibition at 500 µM: 500 μM evaluant
Experimental: (§1) Adenosine diphosphate (ADP) used to induce platelet aggregation was employed as the sodium salt. A 10 mM stock solution was prepared fresh before each use in modified Tyrode's buffer and working dilutions were prepared with modified Tyrode's buffer immediately prior to use. The buffer contained NaCl (137.00 mM), KCl (2.70 mM), NaHCO3 (11.90 mM), NaH2 PO4.H2 O (0.36 mM) and glucose (5.60 mM) in redistilled water. Adjustment to pH 7.4 was effected by addition of 1N HCl. A solution of highly purified human α-thrombin (10,624 units/ml) wss stored at -70° C. in 10 μl aliquots. The latter were diluted with modified Tyrode's buffer to a concentration of 10.0 units/ml immediately prior to use.
(§2) Venous blood for the examples set forth below was collected in plastic syringes from healthy male volunteers (aged 21-30 years) who had fasted overnight and had abstained from all medications, alcohol, tobacco and caffeine for a period of at least one week prior to donations. In experiments employing ADP as the aggregation-inducing agent, the blood was transferred into siliconized centrifuge tubes containing 3.2% sodium citrate (blood/citrate ratio 8:1); in thrombin-induced aggregations, 3.8% sodium citrate (blood/citrate ratio 9:1) was used. The cirtrated whole blood was centrifuged at 120×g for 15 minutes at 23° C., yielding platelet-rich plasma (PRP); platelet-poor plasma (PPP) was obtained by centrifugation of citrated whole blood at 1,100×g for […] at 23° C. The platelet count of PRP was determined and adjusted to a final count of 300,000 platelets per mm^3 by dilution with autologous PPP. (Occasionally, blood from a given donor yielded PRP with a count lower than the stipulated figure; however, this was usually greater than 285,000, and never less than 250,000 platelets per mm^3.) The plasma so obtained was transferred in 1.2-ml aliquots to siliconized glass tubes, by means of a siliconized Pasteur pipet. In order to maintain plasma pH in the appropriate range, the air in the tubes was displaced gently (1 minute) with a 5% CO2 -95% air (v/v) mixture and the tubes sealed with Parafilm according to the method of Han et al, Br. J. Haematol. Vol. 26, pages 373-389 (1974). The plasma was maintained at 37° C. in a water bath until used in the aggregation experiments.
Assays of platelet aggregation was performed at least in duplicate, using plasma acquired from different donors, employing a method developed by Quintana et al (Quintana et al, Thromb. Res., Vol. 22, pages 665-680 (1981); Quintana et al, Thromb. Res., Vol. 20, pages 405-415 (1980) (cf. Born, Nature, Vol. 194, pages 927-929 (1962) and Mustard et al, J. Lab. Clin. Med., Vol. 64, pages 548-559 (1964)).
Initially, in each experiment, 0.45-ml aliquots of PRP were placed in siliconized cuvettes and stirred (1,100 rpm) in the aggregometer at 37° C. to ascertain the absence of spontaneous aggregation. Appropriate ADP solutions (50 μl) were subsequently injected using a Hamilton microliter syringe to determine the minimal concentration eliciting maximal biphasic aggregation. This ranged from 2 μM to 8 μM (cf. Quintana et al, Thromb. Res., Vol. 22, pages 665-680 (1981); Quintana et al, Thromb. Res., Vol. 20, pages 405-415 (1980)). In each case, the concentration of ADP so determined was used in eliciting aggregation throughout each specific set of aggregometric evaluations. In all thrombin-induced aggregation experiments the same stimulus was applied; this constituted injection of 50 μl of the solution containing 10.0 units of α-thrombin/ml (affording a final concentration of 1.0 unit of α-thrombin/ml PRP).
0.5 μl of a solution of the evaluant compound in redistilled 95% ethanol was injected into a stirred (1,100 rpm) 0.45-ml aliquot of plasma in a siliconized cuvette in the aggregometer-well (37° C.). After 15 seconds, the cuvette was transferred to an incubator (also at 37° C.) and the contents held at this temperature, without stirring, until 2 minutes post-injection. […]

[2] = system: human blood platelet aggregation, thrombin-induced; test: Inhibition of thrombin-induced human blood platelet aggregation (aggregometry, platelet-rich plasma); assay type: cell-based; conditions: for % inhibition of aggregation, thrombin-induced: 50 μM evaluant, human PRP, 1.0 unit α-thrombin/ml PRP
Experimental: as §1
as §2, with “experiments. […]” for “experiments.”
Initially, in each experiment, 0.45-ml aliquots of PRP were placed in siliconized cuvettes and stirred (1,100 rpm) in the aggregometer at 37° C. to ascertain the absence of spontaneous aggregation. […] In each case, the concentration of ADP so determined was used in eliciting aggregation throughout each specific set of aggregometric evaluations. […]

[3] = system: platelet aggregation, ADP-induced; conditions: cited from earlier work
[4] = literature; cited from earlier work
patient's platelets = conditions: Walder et al; cited from earlier work
[5] = Platelet, 100 μM evaluant, human PRP

CCCCN(CCCC)C(=O)C1CCCN(Cc2ccc(CN3CCCC(C(=O)N(CCCC)CCCC)C3)cc2)C1 (stereo not drawn) [Example 14, α,α'-Bis[3-(N,N--dibutylcarbamoyl)piperidino]-p-xylene Dihydrobromide]
inhibition at 50 µM ([1]; Platelet, human PRP): 49.7%

CCCCCCCCCCN1CCCC(C(=O)N2CCN(C(=O)C3CCCN(CCCCCCCCCC)C3)CC2)C1 (stereo not shown) [Example 37, N,N'--Bis(1-decylnipecotoyl)piperazine Dihydriodide]
% inhibition of aggregation, thrombin-induced [2]: 88.2%
inhibition at 10 µM ([1]; Platelet, 10 μM evaluant, human PRP): 48.3%
inhibition at 50 µM ([1]; Platelet, human PRP): 93.8%

CCCCCCCCCCN1CCCC(C(=O)N(C)CCN(C)C(=O)C2CCCN(CCCCCCCCCC)C2)C1 (stereo not shown) [Example 40, 1,2-Bis[N--(1-decylnipecotoyl)-N--methylamino]ethane Dihydriodide]
inhibition at 50 µM ([1]; Platelet, human PRP): 82.6%

CCCCCCN1CCCc2cc(O)ccc21 [Example 11, 1-Hexyl-6-hydroxy-1,2,3,4-tetrahydroquinoline Hydriodide]
inhibition at 50 µM ([1]; Platelet, human PRP): 37.2%
inhibition at 100 µM [1, 5]: 45.9%

CCCCCCN1CCCC(C(=O)N(C)CCN(C)C(=O)C2CCCN(CCCCCC)C2)C1 (stereo not shown) [Example 41, 1,2-Bis[N--(1-hexylnipecotoyl)-N--methylamino]ethane Dihydriodide]
inhibition at 50 µM ([1]; Platelet, human PRP): 71.6%

CCCCCCCCCCN1CCCC(C(=O)N(C)CCCCCCN(C)C(=O)C2CCCN(CCCCCCCCCC)C2)C1 (stereo not shown) [Example 42, 1,6-Bis[N--(1-decylnipecotoyl)-N--methylamino]hexane Dihydriodide]
% inhibition of aggregation, thrombin-induced [2]: 88.3%
inhibition at 50 µM ([1]; Platelet, human PRP): 85.6%

CCCCN(CCCC)C(=O)C1CCCN(C)C1 (stereo not shown) [Example 23, 1-Methyl-3-(N,N--dibutylcarbamoyl)piperidine Hydriodide]
inhibition at 100 µM [1, 5]: 11.8%

CCCCCCCCN(C)C(=O)C1CCCNC1 (stereo not shown) [Example 21, N--Methyl-N--octylnipecotamide]
inhibition at 100 µM [1, 5]: 49.9%

CCCCCCCCCCCCCCN1CCCc2cc(O)ccc21 [Example 12, 1-Tetradecyl-6-hydroxy-1,2,3,4-tetrahydroquinoline Hydriodide]
inhibition at 50 µM ([1]; Platelet, human PRP): 0%

CCCCCCCCCCN1CCCc2cc(O)ccc21 [Example 9, 1-Decyl-6-hydroxy-1,2,3,4-tetrahydroquinoline Hydriodide]
inhibition at 50 µM ([1]; Platelet, human PRP): 33%

CCCCCCN1CCCC(C(=O)N(CCCC)CCCCCCN(CCCC)C(=O)C2CCCN(CCCCCC)C2)C1 (stereo not shown) [Example 44, 1,6-Bis[N--(1-hexylnipecotoyl)-N--butylamino]hexane Dihydriodide]
inhibition at 50 µM ([1]; Platelet, human PRP): 72.4%

CN1CCCC(C(=O)NCCCCCCCCCCNC(=O)C2CCCN(C)C2)C1 (stereo not shown) [Example 28, 1,10-Bis[N--(1-methylnipecotoyl)amino]decane Dihydriodide]
inhibition at 50 µM ([1]; Platelet, human PRP): 30.9%

CCCCCCCCN(C)C(=O)C1CCCN(C)C1 (stereo not shown) [Example 22, 1-Methyl-3-(N--methyl-N--octylcarbamoyl)piperidine Hydriodide]
inhibition at 100 µM [1, 5]: 33.1%

Oc1ccc2c(c1)CCCN2Cc1ccc(CN2CCCc3cc(O)ccc32)cc1 [Example 5, α,α'-Bis(6-hydroxy-1,2,3,4-tetrahydroquinolino)-p-xylene Dihydrobromide]
inhibition at 50 µM ([1]; Platelet, human PRP): 21.5%

CN(CCN(C)C(=O)C1CCCNC1)C(=O)C1CCCNC1 (stereo not shown) [Example 39, 1,2-Bis(N-nipecotoyl-N-methylamino)ethane dihydrobromide]
inhibition at 500 µM ([1]; Platelet, human PRP): 46.3%

C[N+]1(CCCCCCCCCC[N+]2(C)CCCCC2)CCCCC1 [Example 33, 1,10-Bis(N--methylpiperidinium)decane Diiodide]
inhibition at 100 µM ([1]; Homo sapiens, Platelet): 0%

O=C1C(CC[S+]([O-])c2ccccc2)C(=O)N(c2ccccc2)N1c1ccccc1 (stereo not shown) [sulfinpyrazone]
inhibition in ADP-induced aggregation ([3]; 2,470 μM, Packham et al): 0%

CCCCCCCCN(C)C(=O)c1cccnc1 [Example 20, N--Methyl-N--octylnicotinamide]
inhibition at 100 µM [1, 5]: 12.1%

CCCCCCCCCCN1CCCC(C(=O)N(CCCC)CCCCCCN(CCCC)C(=O)C2CCCN(CCCCCCCCCC)C2)C1 (stereo not shown) [Example 43, 1,6-Bis[N--(1-decylnipecotoyl)-N--butylamino]hexane Dihydriodide]
inhibition at 50 µM ([1]; Platelet, human PRP): 38.6%

CC(=O)Oc1ccccc1C(=O)O [aspirin, reference compound]
% inhibition of aggregation, thrombin-induced [2]: 9%
deleterious / adverse effects [4]: severe enough to counsel against its use by survivors of myocardial infarction
inhibition at 50 µM ([1]; Platelet, human PRP): 24%
effect on patient's platelets (patient's platelets): incapacitate the patient's platelets for the rest of their life span

CCCCCCCCCCNC(=O)C1CCCN(Cc2ccc(CN3CCCC(C(=O)NCCCCCCCCCC)C3)cc2)C1 (stereo not drawn) [Example 19, α,α'-Bis[3-(N--decylcarbamoyl)piperidino]-p-xylene Dihydrobromide]
inhibition at 50 µM ([1]; Platelet, human PRP): 0%

CN1CCCC(C(=O)NCCCCCCNC(=O)C2CCCN(C)C2)C1 (stereo not shown) [Example 31, 1,6-Bis[N--(1-methylnipecotoyl)amino]hexane Dihydriodide]
inhibition at 500 µM ([1]; Platelet, human PRP): 17%

O=C(O)C1CCCNC1 (stereo not shown) [nipecotic acid, Piperidine-3-carboxylic acid]
deleterious / adverse effects [4]: has not been discerned to have deleterious effects

Oc1ccc2c(c1)CCCN2CCCCCCCCCCN1CCCc2cc(O)ccc21 [Example 7, 1,10-Bis(6-hydroxy-1,2,3,4-tetrahydroquinolino)decane Dihydriodide]
inhibition at 50 µM ([1]; Platelet, human PRP): 25.9%

CCCCN(CCCC)C(=O)c1cccnc1 [Example 13, N,N--Dibutylnicotinamide]
inhibition at 100 µM [1, 5]: 0%

CN(C)CCCN1c2ccccc2Sc2ccc(Cl)cc21 [chloropromazine, reference compound]
effectiveness in thrombin-induced aggregation compared with the piperidine derivatives ([2]; in words, FIG. 2): much less effective
effectiveness in ADP-induced aggregation compared with the piperidine derivatives ([1]; in words): considerably less effective

O=C(C1CCCNC1)N1CCN(C(=O)C2CCCNC2)CC1 (stereo not shown) [Example 35, N,N'--Bis(nipecotoyl)piperazine Dihydrobromide]
inhibition at 500 µM ([1]; Platelet, human PRP): 48.9%

c1ccc2c(c1)CCN(Cc1ccc(CN3CCc4ccccc4C3)cc1)C2 [Example 2, α,α'-Bis(1,2,3,4-tetrahydroisoquinolino)-p-xylene Dihydrobromide]
inhibition at 50 µM ([1]; Platelet, human PRP): 0%
ADP-induced platelet aggregation inhibition, in words ([1]; Table 1 footnote 5): inactive

CCCCCCCCCCN(CCCCCCCCCC)C(=O)C1CCCN(Cc2ccc(CN3CCCC(C(=O)N(CCCCCCCCCC)CCCCCCCCCC)C3)cc2)C1 (stereo not drawn) [Example 16, α,α'-Bis[3-(N,N--didecylcarbamoyl)piperidino]-p-xylene Dihydrobromide]
inhibition at 50 µM ([1]; Platelet, human PRP): 0%

OCCN(CCO)c1nc(N2CCCCC2)c2nc(N(CCO)CCO)nc(N3CCCCC3)c2n1 [dipyridamole]
inhibition in ADP-induced aggregation ([3]; 250 μM, Cucuiani et al): 10%

CCCCCCCCCCNC(=O)C1CCCN(C)C1 (stereo not shown) [Example 25, 1-Methyl-3-(N--decylcarbamoyl)piperidine Hydriodide]
inhibition at 100 µM [1, 5]: 45.6%
